Earlier results as cited in patent US7700579B2, “Process for the preparation of piroxicam: b-cyclodextrin inclusion compounds” (Chiesi Farmaceutici S.p.A., priority 2002, dated 2010).

Details: pH 5, 37° C.

## CN1C(C(=O)Nc2ccccn2)=C(O)c2ccccc2S1(=O)=O [Piroxicam]
  solubility in water: 0.003%
